The text below walks through data of BindingDB's records for doi:10.1016/0960-894X(96)00185-0 (1996).

For orientation: IC50 means the concentration needed to halve the response being measured. Lower therefore signals higher potency.

The target in this experiment is Human immunodeficiency virus type 1 protease (Human immunodeficiency virus 1, UniProt Q72874). The experiment is described as follows: ChEBML_159443. An excerpt: In vitro inhibitory activity against HIV-1 protease(PR).

`O=c1oc(-c2ccc(O)cc2)cc(O)c1SCc1ccccc1` [3-Benzylsulfanyl-4-hydroxy-6-(4-hydroxy-phenyl)-pyran-2-one] returned an IC50 of 0.69 µM. With `O=c1oc(-c2cccc(Cl)c2)cc(O)c1SCc1ccccc1` [3-Benzylsulfanyl-6-(3-chloro-phenyl)-4-hydroxy-pyran-2-one] the figure was 0.69 µM.
